# Key:
# Human alphaherpesvirus 2 = experiment: Effect on herpes simplex virus HSV-2; Ineffective; assay type: functional, organism-based
# Human alphaherpesvirus 1 = experiment: Effect on herpes simplex virus HSV-1; Ineffective; assay type: functional, organism-based
compound,measurement,setting,value
C1C2C3CC4C1C1C2NC3C41 (configuration not stated),Activity,Human alphaherpesvirus 2,Ineffective
same,Activity,Human alphaherpesvirus 1,Ineffective

# From ChEMBL document CHEMBL1123115, “Synthesis and antiviral activity of 11-azapentacyclo[6.2.1.0.0.0]decane” (J Med Chem, 1985)
